# Paper PMC4355085 (Cancer discovery, 2014)
# Biological target: EphA2 (Homo sapiens, UniProt P29317)
# Experiment: cell-free kinase assay
# Format: biochemical
# Sequence of EphA2 (P29317 24-976): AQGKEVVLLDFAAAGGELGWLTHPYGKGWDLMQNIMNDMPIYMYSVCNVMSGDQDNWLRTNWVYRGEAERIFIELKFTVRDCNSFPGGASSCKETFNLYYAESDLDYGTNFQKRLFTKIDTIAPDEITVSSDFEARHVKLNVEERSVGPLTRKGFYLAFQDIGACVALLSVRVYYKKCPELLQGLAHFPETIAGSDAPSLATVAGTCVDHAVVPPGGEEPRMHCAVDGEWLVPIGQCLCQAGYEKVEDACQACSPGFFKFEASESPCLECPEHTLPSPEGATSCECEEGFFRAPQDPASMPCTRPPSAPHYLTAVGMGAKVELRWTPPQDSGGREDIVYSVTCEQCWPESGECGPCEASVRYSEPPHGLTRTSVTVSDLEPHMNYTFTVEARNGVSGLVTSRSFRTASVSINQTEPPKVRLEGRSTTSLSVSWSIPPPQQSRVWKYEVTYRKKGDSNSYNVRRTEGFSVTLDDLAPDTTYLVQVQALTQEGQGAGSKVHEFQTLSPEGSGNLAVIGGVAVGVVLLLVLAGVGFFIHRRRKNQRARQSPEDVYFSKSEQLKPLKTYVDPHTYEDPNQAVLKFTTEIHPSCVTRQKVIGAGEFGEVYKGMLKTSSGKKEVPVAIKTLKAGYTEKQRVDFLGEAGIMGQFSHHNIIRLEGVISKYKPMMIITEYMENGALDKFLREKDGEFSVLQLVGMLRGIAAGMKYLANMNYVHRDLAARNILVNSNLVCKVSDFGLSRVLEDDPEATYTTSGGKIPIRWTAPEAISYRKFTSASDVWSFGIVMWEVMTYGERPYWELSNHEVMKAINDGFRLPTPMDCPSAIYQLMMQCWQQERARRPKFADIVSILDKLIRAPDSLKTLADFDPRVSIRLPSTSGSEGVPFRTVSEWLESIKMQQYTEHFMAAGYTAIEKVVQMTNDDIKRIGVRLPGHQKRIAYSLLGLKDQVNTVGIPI
smiles,measurement,value
CCN1CCN(Cc2ccc(NC(=O)c3ccc(C)c(/C=C/c4cnc5[nH]ccc5c4OC)c3)cc2C(F)(F)F)CC1 [HG-6-64-1],IC50,77.1 nM
